Laboratory results as given in patent US20140112886A1, “DINUCLEOTIDE COMPOUNDS FOR HCV INFECTION” (IDENIX PHARMACEUTICALS, INC., priority 2012, published 2014).

What was measured:
[1] = system: HCV genotype 1b replicon; test: microbe, parasite or virus in culture; assay type: cell-based; conditions: Hepatitis C virus, 72 h, read-out: HCV Replicon EC50
[2] = in vitro; conditions: human
[3] = Cytotoxicity evaluation, CellTiter-Blue Cell Viability Assay; conditions: human, Zluc cells (HCV replicon cells)

Row | SMILES | EC50 [1] [µM] | CC50 [2] [µM] | CC50 at 72 h [3] [µM]
1 | CCOc1nc(N)nc2c1ncn2[C@@H]1O[C@@H]2COP(=O)(Oc3cccc(OP4(=O)OC[C@H]5O[C@@H](n6cnc7c(OCC)nc(N)nc76)[C@](C)(O)[C@@H]5O4)c3)O[C@H]2[C@@]1(C)O (stereo partly shown) [Compound 12] | 0.25 to 1 | > 50 | 
2 | CCOc1nc(N)nc2c1ncn2[C@@H]1O[C@@H]2COP(=O)(NCCCCCCNP3(=O)OC[C@H]4O[C@@H](n5cnc6c(OCC)nc(N)nc65)[C@](C)(F)[C@@H]4O3)O[C@H]2[C@@]1(C)F (stereo partly shown) [Compound 14] | 1 to 10 |  | > 50
3 | CCOc1nc(N)nc2c1ncn2[C@@H]1O[C@@H]2COP(=O)(OC3CCC(OP4(=O)OC[C@H]5O[C@@H](n6cnc7c(OCC)nc(N)nc76)[C@](C)(F)[C@@H]5O4)CC3)O[C@H]2[C@@]1(C)F (stereo partly shown) [Compound 13] | 1 to 10 | > 50 | 
4 | CCOc1nc(N)nc2c1ncn2[C@@H]1OC(COP2(=O)OCC3(CO2)COP(=O)(OCC2O[C@@H](n4cnc5c(OCC)nc(N)nc54)[C@](C)(F)[C@@H]2O)OC3)[C@@H](O)[C@@]1(C)F (stereo partly shown) [Compound 7] | > 10 | > 50 | 
5 | CCOc1nc(N)nc2c1ncn2[C@@H]1O[C@@H]2COP(=O)(Oc3cccc(OP4(=O)OC[C@H]5O[C@@H](n6ccc(OC)nc6=O)[C@](C)(F)[C@@H]5O4)c3)O[C@H]2[C@@]1(C)F (stereo partly shown) [Compound 10] | < 0.25 | > 50 | 
6 | CCOc1nc(N)nc2c1ncn2[C@@H]1O[C@@H]2COP(=O)(NCCNP3(=O)OC[C@H]4O[C@@H](n5cnc6c(OCC)nc(N)nc65)[C@](C)(F)[C@@H]4O3)O[C@H]2[C@@]1(C)F (mixture of isomers) [Compound 3] | 1 to 10 |  | > 50
7 | CCOc1nc(N)nc2c1ncn2[C@@H]1O[C@H](COP(=O)(Oc2ccccc2)N2CCN(P(=O)(OC[C@H]3O[C@@H](n4cnc5c(OC)nc(N)nc54)[C@](C)(O)[C@@H]3O)Oc3ccccc3)CC2)[C@@H](O)[C@@]1(C)F (stereo partly shown) [Compound 4] | > 10 | > 50 | 
8 | CCOc1nc(N)nc2c1ncn2[C@@H]1O[C@@H]2COP(=O)(Oc3cccc(OP4(=O)OC[C@H]5O[C@@H](n6cnc7c(OCC)nc(N)nc76)[C@](C)(F)[C@@H]5O4)c3)O[C@H]2[C@@]1(C)O (stereo partly shown) [Compound 9] | < 0.25 | > 50 | 
9 | CCOc1nc(N)nc2c1ncn2[C@@H]1O[C@@H]2COP(=O)(Oc3cccc(OP4(=O)OC[C@H]5O[C@@H](n6ccc(=O)[nH]c6=O)[C@](C)(F)[C@@H]5O4)c3)O[C@H]2[C@@]1(C)F (stereo partly shown) [Compound 8] | < 0.25 | > 50 | 
10 | CCOc1nc(N)nc2c1ncn2[C@@H]1O[C@H](COP(=O)(NCCNP(=O)(OC[C@H]2O[C@@H](n3cnc4c(OC)nc(N)nc43)[C@](C)(O)[C@@H]2O)Oc2ccccc2)Oc2ccccc2)[C@@H](O)[C@@]1(C)F (stereo partly shown) [Compound 5] | > 10 | > 50 | 
11 | COc1nc(N)nc2c1ncn2[C@@H]1O[C@H](COP(=O)(NCCNP(=O)(OC[C@H]2O[C@@H](n3cnc4c(OC)nc(N)nc43)[C@](C)(O)[C@@H]2O)Oc2ccccc2)Oc2ccccc2)[C@@H](O)[C@@]1(C)O (stereo partly shown) [Compound 6] | > 10 | > 50 | 
